# Where two headings read alike, the source gives them in different places.
# How the values were obtained:
# TNK2 = molecular target: T1, TNK2 (Homo sapiens, UniProt Q07912); test: CEREP protein kinase assay; type: biochemical
# T1 construct: purchased CEREP Panlabs (Eurofins)
# MDA-MB-231met2 cells = test: MS detection of ZMP in cultured cells; type: cell-based, human; details: regular RPMI, calculated with 4 pL cell volume
# Description: To mimic human plasma levels, low folate media is traditionally used in which the folate comes only from the defined fetal bovine serum. […] Because LSN3213128 would be dosed in mice on normal diet, cell line screening was performed under standard tissue culture conditions to identify cell lines sensitive to treatment under high folate conditions. In order to compare tissue culture values with tumor levels, an average 4 pL cell volume[36] was used to calculate cellular ZMP concentrations. In MDA-MB-231[…] cells using regular RPMI, the peak intracellular ZMP levels are about 770 μM while in the salvage deficient A9 cells ZMP is 6,500 μM. […] It is not surprising that in vivo in mice on standard chow where folate plasma levels are >10-fold lower than tissue culture that tumor ZMP levels are also lower. […] ZMP was detected in cultured cells via mass spec analysis. Cells were plated in 96-well plates at 25,000 cells per well in 100 μL with either high or low folate RPMI media and incubated overnight at 37 °C with 5% CO2. […] […] dUMP were detected using positive ion TurboIonSpray® multiple reaction monitoring mode and the data were processed with AB Sciex MultiQuantTM. Back-calculated ZMP concentrations were fit to a four-parameter logistic equation using ACTIVITYBASE 4.0 to determine EC50 values relative to the maximum observed metabolite levels.
# HER2 = molecular target: T2, HER2 (Homo sapiens, UniProt P04626); test: CEREP protein kinase assay; type: biochemical
# T2 construct: purchased CEREP Panlabs (Eurofins)
# T2 sequence (P04626 23-1255): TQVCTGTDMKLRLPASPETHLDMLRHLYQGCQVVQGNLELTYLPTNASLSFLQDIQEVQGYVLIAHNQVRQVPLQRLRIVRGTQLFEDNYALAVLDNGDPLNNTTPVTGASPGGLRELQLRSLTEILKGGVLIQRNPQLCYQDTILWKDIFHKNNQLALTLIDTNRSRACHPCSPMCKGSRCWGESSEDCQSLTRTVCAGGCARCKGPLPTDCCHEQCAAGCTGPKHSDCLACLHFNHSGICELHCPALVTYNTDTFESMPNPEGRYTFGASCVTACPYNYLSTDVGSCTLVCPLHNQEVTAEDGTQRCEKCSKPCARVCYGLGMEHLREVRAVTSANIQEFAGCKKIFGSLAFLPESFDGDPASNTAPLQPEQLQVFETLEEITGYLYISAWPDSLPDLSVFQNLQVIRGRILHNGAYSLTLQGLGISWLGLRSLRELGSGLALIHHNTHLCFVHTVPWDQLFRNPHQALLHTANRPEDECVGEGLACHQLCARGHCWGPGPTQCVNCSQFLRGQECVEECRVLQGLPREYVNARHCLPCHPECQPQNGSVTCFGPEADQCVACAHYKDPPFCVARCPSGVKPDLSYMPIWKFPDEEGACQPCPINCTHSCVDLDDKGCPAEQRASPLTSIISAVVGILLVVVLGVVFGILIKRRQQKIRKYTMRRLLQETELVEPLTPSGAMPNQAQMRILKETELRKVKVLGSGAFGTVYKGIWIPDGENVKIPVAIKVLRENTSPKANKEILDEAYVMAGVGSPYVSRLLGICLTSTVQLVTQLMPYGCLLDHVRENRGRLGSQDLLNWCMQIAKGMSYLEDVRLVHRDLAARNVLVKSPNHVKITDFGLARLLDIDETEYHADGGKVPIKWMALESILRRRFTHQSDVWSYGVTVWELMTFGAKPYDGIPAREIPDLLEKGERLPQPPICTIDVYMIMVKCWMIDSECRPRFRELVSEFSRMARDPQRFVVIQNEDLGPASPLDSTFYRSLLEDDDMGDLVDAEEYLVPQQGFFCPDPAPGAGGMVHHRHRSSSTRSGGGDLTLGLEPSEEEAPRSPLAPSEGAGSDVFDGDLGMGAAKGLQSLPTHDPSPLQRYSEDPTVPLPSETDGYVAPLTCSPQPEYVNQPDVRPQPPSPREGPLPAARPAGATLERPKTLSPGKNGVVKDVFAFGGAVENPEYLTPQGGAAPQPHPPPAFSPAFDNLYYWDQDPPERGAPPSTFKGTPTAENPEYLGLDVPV
# NCI-H460 xenografts = test: Pharmacodynamic response of tumor metabolites, single PO dose, low folate chow; type: in vivo, mouse
# Text: Figure 4 Pharmacodynamic response of ZMP (purple), AICAR (blue), […] (green), dUMP (red), AMP (aqua) & GMP (orange) metabolites in tumors following a single PO dose of LSN3213128 in athymic nude mice.
# EGFR = molecular target: T3, EGFR (Homo sapiens, UniProt P00533); test: CEREP protein kinase assay; type: biochemical
# T3 construct: purchased CEREP Panlabs (Eurofins)
# T3 sequence (P00533 25-1210): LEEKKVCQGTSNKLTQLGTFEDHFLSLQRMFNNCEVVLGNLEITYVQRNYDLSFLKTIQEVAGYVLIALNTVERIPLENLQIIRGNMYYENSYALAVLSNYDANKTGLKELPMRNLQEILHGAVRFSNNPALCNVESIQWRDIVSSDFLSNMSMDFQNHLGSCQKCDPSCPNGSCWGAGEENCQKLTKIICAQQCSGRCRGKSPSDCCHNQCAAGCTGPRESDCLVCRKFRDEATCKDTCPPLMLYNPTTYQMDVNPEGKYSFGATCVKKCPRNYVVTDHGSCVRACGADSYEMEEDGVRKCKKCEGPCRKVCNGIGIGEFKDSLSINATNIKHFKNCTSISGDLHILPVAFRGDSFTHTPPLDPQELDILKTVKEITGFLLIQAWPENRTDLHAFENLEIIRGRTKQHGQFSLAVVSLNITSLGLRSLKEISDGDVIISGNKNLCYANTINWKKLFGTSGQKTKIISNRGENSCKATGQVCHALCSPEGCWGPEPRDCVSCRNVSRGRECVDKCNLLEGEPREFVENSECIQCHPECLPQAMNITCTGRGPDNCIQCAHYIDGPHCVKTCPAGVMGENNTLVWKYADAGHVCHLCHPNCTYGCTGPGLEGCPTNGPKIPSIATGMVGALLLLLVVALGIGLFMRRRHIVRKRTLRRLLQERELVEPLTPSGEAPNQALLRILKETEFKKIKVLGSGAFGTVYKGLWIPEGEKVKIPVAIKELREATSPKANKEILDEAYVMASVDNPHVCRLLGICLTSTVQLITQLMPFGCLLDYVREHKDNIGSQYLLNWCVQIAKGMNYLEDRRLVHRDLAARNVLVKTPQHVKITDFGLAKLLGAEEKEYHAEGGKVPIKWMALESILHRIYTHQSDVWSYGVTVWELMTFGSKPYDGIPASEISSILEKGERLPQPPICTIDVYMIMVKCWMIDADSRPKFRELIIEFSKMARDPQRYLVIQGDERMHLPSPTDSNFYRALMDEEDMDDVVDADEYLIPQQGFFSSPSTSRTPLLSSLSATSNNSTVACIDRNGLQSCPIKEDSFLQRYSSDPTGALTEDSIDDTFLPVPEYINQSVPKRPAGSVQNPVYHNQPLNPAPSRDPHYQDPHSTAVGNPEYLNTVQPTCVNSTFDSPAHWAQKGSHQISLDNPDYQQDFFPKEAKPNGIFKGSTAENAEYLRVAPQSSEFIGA
# A9 tumor = test: Antitumor efficacy and tumor metabolites, A9 tumor model; type: in vivo, mouse; details: A9 tumors
# MDA-MB-231 (mammary) = test: MS detection of ZMP in cultured cells; type: cell-based, human; details: for EC50: Homo sapiens, 16 hours
# Description: (§1) Cells lines were acquired from cell banks, see supplemental material, grown using the cell banks recommended culture conditions (Supplemental Table 3). In some experiments noted “low folate” the cells were washed and grown in folate free RPMI-1640 media (Gibco #27016-021) supplemented with 5 ml 1 M Hepes, 5 ml 100 mM Na pyruvate, 2.5 mg/ml glucose and 10% defined FBS (Hyclone #SH30070) per 500 mL media for 5–7 days to deplete intracellular folate levels prior to the start of the experiment. Where noted, cells were maintained in complete “high folate” RPMI-1640 media (ATCC #30-2001) with 10% defined FBS to contrast with the low folate conditions.
# (§2) ZMP was detected in cultured cells via mass spec analysis. Cells were plated in 96-well plates at 25,000 cells per well in 100 µL with either high or low folate RPMI media and incubated overnight at 37 °C with 5% CO2. Cells were treated with inhibitor compounds for 16 hours, 0.5% DMSO final concentration. Growth media was decanted and cells were lysed for 10 min at room temperature with 50 µL per well of 1x Sure Fire Lysis buffer (Perkin Elmer, SureFire kit component). Aliquots (40 µL) of standard or sample were combined in a deep 96-well plate with 160 µL of internal standard solution containing ^13C5-ZMP (custom synthesis) and ^13C5-AICAr (custom synthesis) at 100 ng/mL in 40 mM ammonium acetate, pH 4. 400 µL of dichloromethane was added to each sample. Samples were sealed, vortexed for 5 minutes, and placed in the refrigerator for at least 30 minutes. The samples were centrifuged at 4 °C for 10 minutes at 16,600 g. 75 µL of the aqueous layer were transferred to a clean 96-well plate and seal prior to analysis.
# (§3) The LC-MS method utilizes a Shimadzu Prominence 20 A HPLC system connected to an AB Sciex 5500™ or an AB Sciex 6500™ triple quadrupole mass spectrometer. Extracted samples were separated using a Thermo Hypercarb™ Javelin guard column (2.1 × 20 mm, 5 µm) with an injection volume of 15 µL and a flow rate of 1 mL/minute.
# (§4) ZMP, AICAr and dUMP were detected using positive ion TurboIonSpray® multiple reaction monitoring mode and the data were processed with AB Sciex MultiQuant™. Back-calculated ZMP concentrations were fit to a four-parameter logistic equation using ACTIVITYBASE 4.0 to determine EC50 values relative to the maximum observed metabolite levels.
# NCI-H460 (lung) = test: MS detection of ZMP in cultured cells; type: cell-based, human; details: for EC50: 16 hours; for peak intracellular ZMP levels: NCI-H460 cells, calculated with 4 pL cell volume
# Description: as §1, §2, §3, §4
# ERK1 = molecular target: T4, ERK1 (Homo sapiens, UniProt P27361); test: CEREP protein kinase assay; type: biochemical
# T4 construct: purchased CEREP Panlabs (Eurofins)
# T4 sequence (P27361 whole entry): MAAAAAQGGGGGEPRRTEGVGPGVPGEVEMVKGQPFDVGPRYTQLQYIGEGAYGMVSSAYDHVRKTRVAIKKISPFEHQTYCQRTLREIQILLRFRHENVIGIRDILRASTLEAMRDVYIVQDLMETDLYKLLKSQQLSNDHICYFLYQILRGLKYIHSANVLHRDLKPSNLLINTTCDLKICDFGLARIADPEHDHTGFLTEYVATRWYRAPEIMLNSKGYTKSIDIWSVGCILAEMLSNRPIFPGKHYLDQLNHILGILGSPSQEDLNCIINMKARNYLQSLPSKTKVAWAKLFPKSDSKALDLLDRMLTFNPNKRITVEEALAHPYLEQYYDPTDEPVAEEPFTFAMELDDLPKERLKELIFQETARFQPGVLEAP
# KIT = molecular target: T5, KIT (Homo sapiens, UniProt P10721); test: CEREP protein kinase assay; type: biochemical
# T5 construct: purchased CEREP Panlabs (Eurofins)
# T5 sequence (P10721 26-976): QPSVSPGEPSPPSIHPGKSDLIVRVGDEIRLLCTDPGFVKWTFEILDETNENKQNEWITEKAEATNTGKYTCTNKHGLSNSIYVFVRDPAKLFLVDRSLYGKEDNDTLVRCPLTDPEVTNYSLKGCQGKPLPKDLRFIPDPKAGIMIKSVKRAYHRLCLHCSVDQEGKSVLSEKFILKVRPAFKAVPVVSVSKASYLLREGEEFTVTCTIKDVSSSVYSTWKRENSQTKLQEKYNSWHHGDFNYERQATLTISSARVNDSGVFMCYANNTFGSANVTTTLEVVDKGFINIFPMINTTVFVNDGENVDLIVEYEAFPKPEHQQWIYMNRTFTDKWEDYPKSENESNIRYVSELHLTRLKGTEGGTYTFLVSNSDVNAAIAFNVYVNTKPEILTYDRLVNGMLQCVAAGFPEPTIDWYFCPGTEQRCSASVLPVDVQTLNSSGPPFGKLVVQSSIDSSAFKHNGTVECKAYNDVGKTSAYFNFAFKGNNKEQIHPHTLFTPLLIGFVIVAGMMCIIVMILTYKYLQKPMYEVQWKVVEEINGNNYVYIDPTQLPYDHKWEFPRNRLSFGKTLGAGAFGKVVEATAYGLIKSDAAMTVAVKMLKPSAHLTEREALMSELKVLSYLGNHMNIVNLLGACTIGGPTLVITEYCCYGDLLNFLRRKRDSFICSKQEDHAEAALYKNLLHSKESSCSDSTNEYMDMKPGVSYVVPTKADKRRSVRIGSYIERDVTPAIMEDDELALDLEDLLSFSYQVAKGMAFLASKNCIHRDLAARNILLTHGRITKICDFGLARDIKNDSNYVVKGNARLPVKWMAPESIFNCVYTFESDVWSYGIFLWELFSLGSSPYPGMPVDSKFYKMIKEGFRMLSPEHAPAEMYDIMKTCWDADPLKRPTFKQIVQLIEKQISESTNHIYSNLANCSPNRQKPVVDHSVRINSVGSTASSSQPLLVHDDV
# T1 sequence (Q07912 whole entry): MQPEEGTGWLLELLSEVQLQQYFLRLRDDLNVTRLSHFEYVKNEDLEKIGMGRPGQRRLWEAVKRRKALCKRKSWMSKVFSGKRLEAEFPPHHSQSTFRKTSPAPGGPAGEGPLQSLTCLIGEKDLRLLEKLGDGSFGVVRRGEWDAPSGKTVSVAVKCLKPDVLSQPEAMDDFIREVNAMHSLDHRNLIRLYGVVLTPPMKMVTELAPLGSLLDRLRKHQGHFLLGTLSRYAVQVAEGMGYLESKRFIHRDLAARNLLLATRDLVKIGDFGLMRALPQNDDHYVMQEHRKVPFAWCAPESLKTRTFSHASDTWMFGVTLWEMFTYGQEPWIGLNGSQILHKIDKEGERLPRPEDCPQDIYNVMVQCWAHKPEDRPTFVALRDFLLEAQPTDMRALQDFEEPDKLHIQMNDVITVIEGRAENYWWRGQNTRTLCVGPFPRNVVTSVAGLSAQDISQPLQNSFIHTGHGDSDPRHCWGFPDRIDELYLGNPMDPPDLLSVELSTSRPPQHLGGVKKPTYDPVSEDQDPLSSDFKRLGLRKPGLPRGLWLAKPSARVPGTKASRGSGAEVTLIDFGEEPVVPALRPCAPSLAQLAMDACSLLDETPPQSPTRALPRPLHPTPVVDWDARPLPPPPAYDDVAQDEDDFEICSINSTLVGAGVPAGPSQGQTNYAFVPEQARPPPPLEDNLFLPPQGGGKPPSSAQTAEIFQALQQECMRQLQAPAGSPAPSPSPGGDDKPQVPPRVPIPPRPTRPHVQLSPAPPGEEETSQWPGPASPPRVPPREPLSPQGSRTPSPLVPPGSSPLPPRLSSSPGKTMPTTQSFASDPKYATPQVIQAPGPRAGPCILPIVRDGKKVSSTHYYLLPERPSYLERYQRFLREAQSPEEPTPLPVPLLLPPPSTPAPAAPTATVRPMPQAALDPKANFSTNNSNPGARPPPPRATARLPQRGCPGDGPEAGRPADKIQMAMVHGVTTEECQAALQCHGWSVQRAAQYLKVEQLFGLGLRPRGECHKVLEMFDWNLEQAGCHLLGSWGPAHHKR
smiles,measurement,setting,value
"O=c1[nH]ccc2cc(F)c(NS(=O)(=O)c3ccc(N4CC[C@@H](O)C4)s3)cc12 [LSN3213128, N-(6-Fluoro-1-oxo-1,2-dihydroisoquinolin-7-yl)-5-[(3R)-3-hydroxypyrrolidin-1-yl]thiophene-2-sulfonamide]",inhibition at 0.2 µM,TNK2; @ 0.2 uM,-2.49%
same,inhibition at 2 µM,TNK2; @ 2 uM,16.4%
same,inhibition at 20 µM,TNK2; @ 20 uM,52.5%
same,peak intracellular ZMP levels,MDA-MB-231met2 cells,about 770 μM
same,inhibition at 0.2 µM,HER2; @ 0.2 uM,6.55%
same,inhibition at 2 µM,HER2; @ 2 uM,12.4%
same,inhibition at 20 µM,HER2; @ 20 uM,9.08%
same,tumor dUMP levels,"NCI-H460 xenografts; low folate chow, 4 h, up to 60 mg/kg",unchanged
same,dose at which tumor ZMP response appears to saturate,"NCI-H460 xenografts; nude mice on low folate chow, 4 h post PO dose",1 mg/kg
same,inhibition at 0.2 µM,EGFR; @ 0.2 uM,-11.7%
same,inhibition at 2 µM,EGFR; @ 2 uM,2.87%
same,inhibition at 20 µM,EGFR; @ 20 uM,-0.46%
same,tumor dUMP,A9 tumor; 100 mg/kg QDx12 dose group,0.72 ± 0.41 µM
same,tumor ZMP levels,"A9 tumor; after 12 days of dosing, 100 mg/kg",dramatically elevated
same,EC50,"MDA-MB-231 (mammary); RPMI media, read-out: ZMP EC50 Regular folate",89 nM
same,EC50,"MDA-MB-231 (mammary); low folate RPMI media, read-out: ZMP EC50 Low folate",7.6 nM
same,dUMP levels in tissue culture,MDA-MB-231 (mammary); data not shown,does not alter
same,EC50,"NCI-H460 (lung); Homo sapiens, NCI-H460, 16 h, NCI-H460, RPMI media, read-out: ZMP EC50 Regular folate",438 nM
same,EC50,"NCI-H460 (lung); Homo sapiens, NCI-H460, 16 h, NCI-H460, low folate RPMI media, read-out: ZMP EC50 Low folate",8 nM
same,EC50,"NCI-H460 (lung); NCI-H460, RPMI media, read-out: ZMP EC50 Regular folate",428 ± 102 nM
same,dUMP levels in tissue culture,"NCI-H460 (lung); NCI-H460, data not shown",does not alter
same,peak intracellular ZMP levels,NCI-H460 (lung); low folate media,540 µM
same,peak intracellular ZMP levels,NCI-H460 (lung); regular RPMI,"about 2,700 μM"
same,inhibition at 0.2 µM,ERK1; @ 0.2 uM,-2.6%
same,inhibition at 2 µM,ERK1; @ 2 uM,9.15%
same,inhibition at 20 µM,ERK1; @ 20 uM,53.7%
same,inhibition at 0.2 µM,KIT; @ 0.2 uM,-6.65%
same,inhibition at 2 µM,KIT; @ 2 uM,6.65%
same,inhibition at 20 µM,KIT; @ 20 uM,42%

# — PMC6193938, “Characterization of a novel AICARFT inhibitor which potently elevates ZMP and has anti-tumor activity in murine models” (Scientific Reports, 2018)
